For series [1], the system named is HIV-1 AZT-resistant strain 018c P24 antigen. Description: Inhibition of HIV-1 018c P24 antigen in PBMC cell culture. The series is classed as cell-based. Particulars: 018c; for EC50: Human immunodeficiency virus 1, PBMC, 2 h, PBMC, administration after adsorbing 2 hours; for SI: SI=CC50/EC50. As for the experimental part:
(§1) Collect cells with curette, infect cells with 10^−2 AZT sensitive (018a) or AZT resistant (018c) virus strain liquid, and adsorb for 2 hours, Wash off unabsorbed virus with 1640 culture medium without serum, prepare cells infected by virus to 1×10^6/ml with culture solution, and inoculate on 96-pore culture plate, 100 μl/pore. […] Set cell control group and virus infected cell control group. Incubate under 37° C. and 5% CO2. On the fourth day (96 hours), pipette out the supernatant liquid and store under −20° C. for determination of HIV-1 P24 antigen titer and calculation of drug inhibitory action. Add MTT staining to cells for determination of cytotoxicity. Determination of cytotoxicity by MTT staining: Add 10 μl of 5 mg/ml MTT stain into each pore, continue to incubate under 37° C., 5% CO2 and saturated humidity for 4 hours. […] Determine the HIV-1 P24 antigen titer according to the operation procedure provided by the HIV-1 P24 antigen reagent kit. Compare the drug-added group with virus control group. […] Calculation method of 50% toxic concentration (CC50), 50% effective concentration (EC50) and selection index (SI):
(§2) (3) Calculation Method of Selection Index (SI) on HIV-1 P24 Antigen in Cell Culture SI=CC50/EC50

The nature of series [2]: MTT toxicity on PBMC infected by HIV-1 AZT-resistant strain 018c. Particulars: human. As for the experimental part: as §1, with “(SI): […]” for “(SI):”
The test system of series [3] is HIV-1 AZT-sensitive strain 018a P24 antigen. Description: Inhibition of HIV-1 018a P24 antigen in PBMC cell culture. The series is classed as cell-based. Particulars: for EC50: Human immunodeficiency virus 1, PBMC, 2 h, administration after adsorbing 2 hours. As for the experimental part:
as §1, §2

The nature of a further series: in vitro. Particulars: human. As for the experimental part:
as §1, with “(SI): […]” for “(SI):”

Series [4] deals with T1, glucocorticoid receptor of rat hepatic cytoplasm (Rattus norvegicus, UniProt P06536).
T1 construct: centrifuge at 175000 g for 1 hour, and take out the supernatant liquid as reserve; from tissue; host or cells: liver cytosol (175000 g supernatant) of adrenalectomised female SD rats
T1 sequence (P06536 1-795): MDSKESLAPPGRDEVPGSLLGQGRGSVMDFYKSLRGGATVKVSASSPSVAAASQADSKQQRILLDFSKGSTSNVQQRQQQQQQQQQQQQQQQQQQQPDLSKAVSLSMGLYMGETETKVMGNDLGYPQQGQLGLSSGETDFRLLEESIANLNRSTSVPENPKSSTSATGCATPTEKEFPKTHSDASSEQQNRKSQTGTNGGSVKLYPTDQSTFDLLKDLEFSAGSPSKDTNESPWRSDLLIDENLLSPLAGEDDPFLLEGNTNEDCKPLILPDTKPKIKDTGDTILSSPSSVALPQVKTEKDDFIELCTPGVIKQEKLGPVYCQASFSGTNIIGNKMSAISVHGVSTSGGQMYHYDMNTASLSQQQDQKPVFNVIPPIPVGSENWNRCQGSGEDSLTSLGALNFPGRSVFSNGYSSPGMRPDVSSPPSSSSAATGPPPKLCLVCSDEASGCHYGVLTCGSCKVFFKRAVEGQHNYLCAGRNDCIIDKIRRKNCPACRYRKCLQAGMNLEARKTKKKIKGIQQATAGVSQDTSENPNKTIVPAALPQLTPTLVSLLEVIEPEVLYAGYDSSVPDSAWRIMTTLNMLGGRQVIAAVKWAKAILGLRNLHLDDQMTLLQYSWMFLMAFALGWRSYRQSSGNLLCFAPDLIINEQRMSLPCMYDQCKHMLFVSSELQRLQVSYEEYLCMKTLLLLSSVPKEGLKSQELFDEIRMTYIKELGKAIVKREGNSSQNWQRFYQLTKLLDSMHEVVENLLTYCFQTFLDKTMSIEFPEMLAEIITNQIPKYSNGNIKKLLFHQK
Nature of the series: Competition inhibition of [3H]-dexamethasone binding in rat hepatic cytoplasm. The note with it: read-out: Inhibition rate on binding of [3H]-dexamethasone. As for the experimental part:
Clean female SD rats, body weight 200-250 g, are fed with certain quantity of food and freely drink water. The temperature is controlled at about 24° C. and an illumination cycle are for 11 hours by day and 13 hours at night. All animals are observed for 1 week before experiment. Incisions are made on two sides below arch of ribs on dorsal position of rats to extirpate adrenal glands. After operation, the rats are fed with physiological saline to maintain water-electrolyte balance. On the third day after operation, animals are acutely executed. The liver is taken out immediately and placed in ice cold buffer solution; the blood should be washed off as much as possible. Take certain quantity of tissue, add buffer solution (1:4), cut the tissue with scissors, intermittently homogenize the tissue under low temperature, centrifuge at 175000 g for 1 hour, and take out the supernatant liquid as reserve. […] Then carry out the competition inhibition experiment.

Another series relates to thymus gland cells. Description: Anti-glucocorticoid activity test, [3H]-TdR incorporation in rat thymus gland cells. The series is classed as cell-based. The note with it: dexamethasone 6×10^−8 mol/L used singly. As for the experimental part: Clean female SD rats, body weight 200-250 g, are fed with certain quantity of food and freely drink water. The temperature is controlled at about 24° C. and an illumination cycle are for 11 hours by day and 13 hours at night. All animals are observed for 1 week before experiment. Rats are anesthetized with ethyl ether. Incisions are made on two sides below costal arch of ribs on dorsal position of rats to extirpate adrenal glands. The rats are fed with physiological saline after operation. On the seventh day, animals are acutely executed. Take out thymus gland to place in to HBSS buffer solution, wash twice, remove connective tissue, cut the tissue with scissors, lightly grind with homogenizer, filter with three layers of gauze, and centrifuge the filtrate for 5 min (500 rpm). Wash the precipitated cells twice with HBSS, re-suspend the cells in RPMI1640 culture medium for cell count and cell survival rate determination, and adjust cell concentration to 1×10^7/ml. Determination of anti-glucocorticoid activity: Add tested compound into culture medium, reaction concentration 6×10^−[…], and place in 37° C. incubator for 3 hours. Add thymus gland cells to make cell concentration to become 10^7/ml and incubate at 37° C. for 3 hours. Add 1 μCi of label substance, mix, and incubate for 1 hour. Add 100 μl of ice cold 5% trichloroacetic acid to end the reaction. Place the test tube on ice and wash twice with 2 ml of ice cold 5% trichloroacetic acid and centrifuge twice, 500 rpm×5 min, Add 0.5 ml of 1N NaOH to dissolve the precipitated cells, pipet out the liquid, dry the residue with cotton stick, place into same scintillation bottle, and determine the radioactivity by liquid scintillation counter.
Calculate the incorporation rate of [^3H]-TdR:
In which: T=[^3H]-TdR count without presence of compound, Td=count with presence of compound, and NSB=non-specific adsorption.
Inhibition rate=100%−incorporation rate

The mark [5] stands for this setting: 50% toxic concentration CC50, Average.
Where [6] appears, read: 50% toxic concentration CC50, Experiment 1.
Where [7] appears, read: 50% toxic concentration CC50, Experiment 2.

Each structure is given as a SMILES string. Values after ≈ are worked out from the molar mass of the structure shown.

As a reminder, the EC50 is the midpoint of the concentration-response curve. One may read the CC50 as the concentration giving 50% cytotoxicity. A low value points to harm at low concentration. `Cc1cn([C@H]2C[C@H](N=[N+]=[N-])[C@@H](CO)O2)c(=O)[nH]c1=O` [AZT, zidovudine]: the EC50 in series [1] (Average) was 0.054 µg/mL (≈ 0.202 µM); in series [1] (Experiment 1) it was 0.047 µg/mL (≈ 0.176 µM); in series [1] (Experiment 2), 0.061 µg/mL (≈ 0.228 µM); in series [3] (Average, PBMC), under 0.0064 µg/mL; in series [3] (Experiment 1, PBMC), under 0.0061 µg/mL; in series [3] (Experiment 2, PBMC), under 0.0064 µg/mL. Moreover, the SI was found to be 1390.87 in series [1] (Average); 1504.68 in series [1] (Experiment 1); 1277.05 in series [1] (Experiment 2); 10275.78 in series [3] (SI=CC50/EC50, Average); 9193.75 in series [3] (SI=CC50/EC50, Experiment 1); 11357.81 in series [3] (SI=CC50/EC50, Experiment 2). The CC50 at 96 h in series [2] (setting [5]) stood at 74.3 µg/mL (≈ 278 µM); in series [2] (setting [6]), 70.7 µg/mL (≈ 265 µM); in series [2] (setting [7]), 77.9 µg/mL (≈ 291 µM); in the series “in vitro” (50% toxic concentration CC50), 58.8 µg/mL (≈ 220 µM).

A word on the inhibition: it is the drop in the measured response relative to a control, in per cent. `C[C@@H]1C[C@H]2[C@@H]3CCC4=CC(=O)C=C[C@]4(C)[C@@]3(F)[C@@H](O)C[C@]2(C)[C@@]1(O)C(=O)CO` [Dexamethasone, dexamethasone]: in series [4], the inhibition at 0.0008 µM was determined as 14.7 ± 7.34%, the inhibition at 0.0016 µM was 10.4 ± 6.11%, the inhibition at 0.004 µM is 24.8 ± 5.92% and the inhibition at 0.02 µM came out at 39.4 ± 4.83%. Moreover, in series [4], the inhibition at 0.1 µM came out at 60.4 ± 5.67% and the inhibition at 0.5 µM was determined as 89.2 ± 8.56%. The “Incorporation rate of [3H]-TdR” value with thymus gland cells is 43.2%±3.7.

On to `CC#C[C@]1(O)CC[C@H]2[C@@H]3CCC4=CC(=O)CCC4=C3[C@@H](c3ccc(N(C)C)cc3)C[C@@]21C` [Mifepristone, mifepristone], for which the EC50 was determined as 10.1 µg/mL (≈ 23.5 µM) in series [1] (Average); 10.4 µg/mL (≈ 24.2 µM) in series [1] (Experiment 1); 9.84 µg/mL (≈ 22.9 µM) in series [1] (Experiment 2); 12.4 µg/mL (≈ 28.8 µM) in series [3] (Average, PBMC); 12.4 µg/mL (≈ 28.9 µM) in series [3] (Experiment 1, PBMC); 12.4 µg/mL (≈ 28.8 µM) in series [3] (Experiment 2, PBMC). In addition, the CC50 at 96 h in series [2] (setting [5]) stood at 89.9 µg/mL (≈ 209 µM); in series [2] (setting [6]) it was 105 µg/mL (≈ 244 µM); in series [2] (setting [7]), 74.7 µg/mL (≈ 174 µM); in the series “in vitro” (50% toxic concentration CC50, Average, PBMC, 018a), 83.6 µg/mL (≈ 195 µM); in “in vitro” (50% toxic concentration CC50, Experiment 1, PBMC, 018a), 69.4 µg/mL (≈ 162 µM); in “in vitro” (50% toxic concentration CC50, Experiment 2, PBMC, 018a) it was 97.8 µg/mL (≈ 228 µM).

The values above are taken from patent US20090111781A1, “Use of Cymipristone Type Compounds in Aids Treatment” (SHANGHAI THREE-ALLIANCE BIOTECHNOLOGIES CO., LTD., priority 2005, published 2009).
